Assay: 1H-NMR stability (hydrolysis) of VBT monomer
Assay type: physicochemical
Conditions: 3 weeks
Description: ^1H-NMR Studies. The VBT monomer (5 mg/mL) stability in D2O (with 0.5 μL DMSO as standard) and 0.5 M sodium acetate was analyzed using ^1H-NMR (Avance-600 MHz, Bruker). The VBT peak position and integration were monitored vs. time.
The monomer was recrystallized before use to remove any deprotected thiols. The PVBT polymer was prepared using radical polymerization in TFE and was characterized using NMR spectroscopy. Because the thiouronium group is usually employed as a precursor to thiols, via base-induced hydrolysis, the stability of the VBT monomer under neutral and mildly basic conditions was assessed by recording ^1H-NMR spectra of VBT in D20 and in 0.5 M NaAc (pH≈9.2) for 3 weeks. […] In fact, hydrolysis is typically carried out at much higher pH.

## C=Cc1ccc(CSC(=N)N)cc1.Cl [VBT]
In 0.5 M NaAc (pH≈9.2)
  Hydrolysis of monomer by 1H-NMR: no signs of hydrolysis
In D2O
  Hydrolysis of monomer by 1H-NMR: no signs of hydrolysis

From patent US20220110320A1, “ANTIMICROBIAL THIOURONIUM COPOLYMERS AND METHODS OF MAKING AND USING THE SAME” (priority 2020, published 2022)
